Data taken from patent US20230131025A1, “QUINOLYL PHOSPHINE OXIDE COMPOUND, AND COMPOSITION AND APPLICATION THEREOF” (Betta Pharmaceuticals Co., Ltd., priority 2020, published 2023).

Legend:
Assay in all cases: Cell proliferation experiment (CellTiter Glo, 72 hours)
Assay type in all cases: cell-based
Ba/F3 EGFR WT = Ba/F3 EGFR WT (Homo sapiens, UniProt P00533); conditions: read-out: BaF3 EGFR WT IC50
Procedure: (§1) Experiment 2 Cell Proliferation Experiment
(§2) Suspension cells: Ba/F3 cells with stable overexpression of Δ19del/T790M/C797S mutant gene, named Ba/F3-Δ19del/T790M/C797S; Ba/F3 cells with overexpression of EGFR WT, named Ba/F3 EGFR WT.
(§3) RPMI 1640 with 10% FBS and 1% Penicillin-Streptomycin, or DMEM with 10% FBS and 1% Penicillin-Streptomycin.
(§4) a) Diluting compounds being tested (20 mM stock solutions), as an initial concentration, to 10 mM with 100% DMSO, followed by diluting compounds serially in a 3-fold gradient such that each compound is diluted into 12 concentrations (Cat #P-05525, Labcyte).
(§5) b) Diluting the above compound solutions for 100-fold with culture medium to prepare 10-fold working solution.
(§6) b) Seeding cells into 96-well cell culture plate at a density of 2000 or 3000 cells/well, with 135 μL/well.
(§7) a) Adding the compound prepared in step 2 to the cell plate at 15 μL per well, resulting in a final maximum concentration of 10000 nM or 1111 nM. The compounds is diluted serially in a 3-fold gradient such that each compound is diluted into 9 concentrations, wherein the final concentration of DMSO is 0.1%. Blank control wells are added with medium (0.1% DMSO).
(§8) b) Re-incubating the cells in an incubator for 72 hours. 5. Detection
(§9) a) Adding 50 μL of CTG reagent (CellTiter Glo kit, promega, Cat #G7573) to the 96-well cell culture plate.
(§10) b) Shaking the plate for 2 minutes and reacting at room temperature for 10 minutes.
(§11) c) Reading the luminescence signal value (Lum) using PerkinElmer reader.
(§12) The cell survival inhibition rate of each well was calculated. The data was analyzed by GraphPad Prism 6.0 software. The dose-response curve was obtained by fitting the data with a nonlinear regression equation. The IC50 of each compound was calculated as follows:
(§13) Cell survival inhibition rate (%)=(1−(Lumcompound tested−Lummedium control)/(Lumcell control−Lummedium control))×100%
(§14) Y=Min+(Max−Min)/(1+10^((Log IC50−X)*Slope));
(§15) X: logarithm of compound concentration. Y: cell survival inhibition rate.

Ba/F3-Δ19del/T790M/C797S = Ba/F3-Δ19del/T790M/C797S (Homo sapiens, UniProt P00533, T790M/C797S, cells depend on it, form not given); conditions: read-out: Ba/F3/EGFR Δ19del/T790M/C797S IC50
Sequence of Ba/F3-Δ19del/T790M/C797S (P00533 with tags, fused parts or gaps DEL746-750/T790M/C797S, form open): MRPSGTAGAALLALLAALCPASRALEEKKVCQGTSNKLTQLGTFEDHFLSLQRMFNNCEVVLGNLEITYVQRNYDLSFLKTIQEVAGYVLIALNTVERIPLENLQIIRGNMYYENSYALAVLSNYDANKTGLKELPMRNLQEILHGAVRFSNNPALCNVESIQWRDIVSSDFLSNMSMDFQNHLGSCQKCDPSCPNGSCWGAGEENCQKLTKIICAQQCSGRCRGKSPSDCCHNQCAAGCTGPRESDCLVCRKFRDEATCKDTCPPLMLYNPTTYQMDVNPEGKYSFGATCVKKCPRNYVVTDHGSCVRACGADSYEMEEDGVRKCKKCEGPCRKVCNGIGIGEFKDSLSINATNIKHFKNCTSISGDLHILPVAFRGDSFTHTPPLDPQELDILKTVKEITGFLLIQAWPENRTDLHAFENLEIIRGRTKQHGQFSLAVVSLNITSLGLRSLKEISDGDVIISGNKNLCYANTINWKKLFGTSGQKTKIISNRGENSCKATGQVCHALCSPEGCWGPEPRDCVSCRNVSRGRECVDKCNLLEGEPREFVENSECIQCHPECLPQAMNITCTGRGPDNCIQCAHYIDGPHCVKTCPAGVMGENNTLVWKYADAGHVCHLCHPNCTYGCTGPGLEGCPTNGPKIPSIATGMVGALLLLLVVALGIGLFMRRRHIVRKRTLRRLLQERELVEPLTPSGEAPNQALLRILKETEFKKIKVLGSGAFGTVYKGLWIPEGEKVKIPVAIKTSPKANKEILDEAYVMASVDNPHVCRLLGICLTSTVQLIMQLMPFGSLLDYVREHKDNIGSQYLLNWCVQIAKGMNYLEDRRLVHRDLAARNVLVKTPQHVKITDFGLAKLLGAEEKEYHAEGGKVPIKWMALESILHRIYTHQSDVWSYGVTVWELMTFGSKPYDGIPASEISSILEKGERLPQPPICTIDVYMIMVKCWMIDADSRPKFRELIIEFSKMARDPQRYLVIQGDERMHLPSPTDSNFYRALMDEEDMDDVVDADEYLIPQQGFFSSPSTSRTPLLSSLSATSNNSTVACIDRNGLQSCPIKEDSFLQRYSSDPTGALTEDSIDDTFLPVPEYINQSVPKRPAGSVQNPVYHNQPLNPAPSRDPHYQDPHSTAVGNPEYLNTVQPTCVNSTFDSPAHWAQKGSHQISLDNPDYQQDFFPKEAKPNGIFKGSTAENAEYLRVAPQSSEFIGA
Procedure: as §1, §2, §3, §4, §5, §6, §7, §8, §9, §10, §11, §12, §13, §14, §15

[1] = tested on: human epidermal cancer cells A431 carrying EGFR WT; conditions: Homo sapiens, A-431
Procedure: as §1
Adherent cells: human epidermal cancer cells A431 carrying EGFR WT.
as §3, §4, §5, §6, §7, §8, §9, §10, §11, §12, §13, §14, §15

Sequence of Ba/F3 EGFR WT (P00533 whole entry, change not shown): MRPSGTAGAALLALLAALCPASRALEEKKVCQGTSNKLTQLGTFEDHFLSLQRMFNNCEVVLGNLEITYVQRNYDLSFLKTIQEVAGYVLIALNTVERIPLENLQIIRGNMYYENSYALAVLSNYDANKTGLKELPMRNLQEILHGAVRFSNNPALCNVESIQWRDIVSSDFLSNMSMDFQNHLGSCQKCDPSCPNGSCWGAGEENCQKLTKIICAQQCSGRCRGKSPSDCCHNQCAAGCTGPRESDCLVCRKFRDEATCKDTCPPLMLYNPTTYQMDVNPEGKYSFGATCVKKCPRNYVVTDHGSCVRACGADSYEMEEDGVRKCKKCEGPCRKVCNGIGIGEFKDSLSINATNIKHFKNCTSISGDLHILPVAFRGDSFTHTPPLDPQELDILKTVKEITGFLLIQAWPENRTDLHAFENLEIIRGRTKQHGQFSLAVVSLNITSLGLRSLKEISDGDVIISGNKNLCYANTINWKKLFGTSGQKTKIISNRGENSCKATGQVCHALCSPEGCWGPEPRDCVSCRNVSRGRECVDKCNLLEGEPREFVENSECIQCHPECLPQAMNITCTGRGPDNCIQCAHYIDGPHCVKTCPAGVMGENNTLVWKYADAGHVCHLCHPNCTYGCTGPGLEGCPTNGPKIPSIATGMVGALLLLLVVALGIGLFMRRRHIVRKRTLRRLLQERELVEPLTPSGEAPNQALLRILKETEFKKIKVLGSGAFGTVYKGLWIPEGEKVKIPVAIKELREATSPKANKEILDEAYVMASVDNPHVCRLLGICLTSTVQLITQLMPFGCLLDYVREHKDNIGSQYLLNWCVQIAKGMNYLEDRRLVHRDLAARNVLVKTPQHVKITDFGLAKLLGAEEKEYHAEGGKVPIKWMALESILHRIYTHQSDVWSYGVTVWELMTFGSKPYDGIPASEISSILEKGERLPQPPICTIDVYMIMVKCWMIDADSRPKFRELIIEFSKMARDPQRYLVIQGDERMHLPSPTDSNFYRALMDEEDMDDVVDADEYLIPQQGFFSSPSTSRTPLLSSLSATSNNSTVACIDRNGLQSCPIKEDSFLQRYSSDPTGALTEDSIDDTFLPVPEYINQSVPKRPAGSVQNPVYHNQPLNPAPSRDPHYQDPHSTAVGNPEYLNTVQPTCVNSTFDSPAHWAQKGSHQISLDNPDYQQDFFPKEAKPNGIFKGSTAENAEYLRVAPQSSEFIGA

| SMILES | GI50 (Ba/F3 EGFR WT) [nM] | GI50 (Ba/F3-Δ19del/T790M/C797S) [nM] | IC50 [1] [nM] |
| --- | --- | --- | --- |
| COc1cc(N2CCN(C)CC2)c(-c2cnn(C)c2)cc1Nc1ncc(Br)c(Nc2ccc3nc(C4CC4)ccc3c2P(C)(C)=O)n1 [Compound J-054, (6-((5-Bromo-2-((2-methoxy-5-(1-methyl-1H-pyrazol-4-yl)-4-(4-methylpiperazin-1-yl)phenyl)amino)pyrimidin-4-yl)amino)-2-cyclopropylquinolin-5-yl)dimethylphosphine oxide] | 15.8 | 0.8 | 143 |
| COc1cc(N2CCC(N3CCN(C)CC3)CC2)c(-c2cnn(C)c2)cc1Nc1ncc(F)c(Nc2ccc3nc(C4CC4)ccc3c2P(C)(C)=O)n1 [Compound J-065] | 73 | 13 | 425 |
| COc1cc(NCC2CCN(C)CC2)c(-c2cnn(C)c2)cc1Nc1ncc(Br)c(Nc2ccc3nc(C4CC4)ccc3c2P(C)(C)=O)n1 [Compound J-052] | 123 | 2.6 | 279 |
| COc1cc(N2CCN(c3cccnc3)CC2)c(-c2cnn(C)c2)cc1Nc1ncc(Br)c(Nc2ccc3nc(C4CC4)ccc3c2P(C)(C)=O)n1 [Compound J-056, (6-((5-Bromo-2-((2-methoxy-5-(1-methyl-1H-pyrazol-4-yl)-4-(4-(pyridin-3-yl)piperazin-1-yl)phenyl)amino)pyrimidin-4-yl)amino)-2-cyclopropylquinolin-5-yl)dimethylphosphine oxide] | 38 | 0.8 | 1100 |
| COc1ncc(N2CCN(c3cc(OC)c(Nc4ncc(Br)c(Nc5ccc6nc(C7CC7)ccc6c5P(C)(C)=O)n4)cc3-c3cnn(C)c3)CC2)cn1 [Compound J-044, (6-((5-Bromo-2-((2-methoxy-4-(4-(2-methoxypyrimidin-5-yl)piperazin-1-yl)-5-(1-methyl-1H-pyrazol-4-yl)phenyl)amino)pyrimidin-4-yl)amino)-2-cyclopropylquinolin-5-yl)dimethylphosphine oxide] | 25.2 | 1 | 432 |
| COc1cc(N2CCN(c3cnccn3)CC2)c(-c2cnn(C)c2)cc1Nc1ncc(Br)c(Nc2ccc3nc(C4CC4)ccc3c2P(C)(C)=O)n1 [Compound J-058, (6-((5-Bromo-2-((2-methoxy-5-(1-methyl-1H-pyrazol-4-yl)-4-(4-(pyrazin-2-yl)piperazin-1-yl)phenyl)amino)pyrimidin-4-yl)amino)-2-cyclopropylquinolin-5-yl)dimethylphosphine oxide] | 117 | 5.8 | 649 |
| COc1cc(N2CCN(C3CCCC3)CC2)c(-c2cnn(C)c2)cc1Nc1ncc(Br)c(Nc2ccc3nc(C4CC4)ccc3c2P(C)(C)=O)n1 [Compound J-055, (6-((5-Bromo-2-((4-(4-cyclopentylpiperazin-1-yl)-2-methoxy-5-(1-methyl-1H-pyrazol-4-yl)phenyl)amino)pyrimidin-4-yl)amino)-2-cyclopropylquinolin-5-yl)dimethylphosphine oxide] | 79 | 12.4 |  |
| COc1cc(N2CCC(N3CCOCC3)CC2)c(-c2cnn(C)c2)cc1Nc1ncc(Br)c(Nc2ccc3nc(C4CC4)ccc3c2P(C)(C)=O)n1 [Compound J-059, (6-((5-Bromo-2-((2-methoxy-5-(1-methyl-1H-pyrazol-4-yl)-4-(4-morpholinopiperidine-1-yl)phenyl)amino)pyrimidin-4-yl)amino)-2-cyclopropylquinolin-5-yl)dimethylphosphine oxide] | 10.6 | 0.4 | 264 |
| COc1cc(N2CCN(c3nccs3)CC2)c(-c2cnn(C)c2)cc1Nc1ncc(Br)c(Nc2ccc3nc(C4CC4)ccc3c2P(C)(C)=O)n1 [Compound J-048, (6-((5-Bromo-2-((2-methoxy-5-(1-methyl-1H-pyrazol-4-yl)-4-(4-(thiazol-2-yl)piperazin-1-yl)phenyl)amino)pyrimidin-4-yl)amino)-2-cyclopropylquinolin-5-yl)dimethylphosphine oxide] | 52 | 7.6 | 1100 |
| COc1cc(N2CCN(c3ccncc3)CC2)c(-c2cnn(C)n2)cc1Nc1ncc(Br)c(Nc2ccc3nc(C4CC4)ccc3c2P(C)(C)=O)n1 [Compound J-047, (6-((5-Bromo-2-((2-methoxy-5-(2-methyl-2H-1,2,3-triazol-4-yl)-4-(4-(pyridin-4-yl)piperazin-1-yl)phenyl)amino)pyrimidin-4-yl)amino)-2-cyclopropylquinolin-5-yl)dimethylphosphine oxide] | 21 | 0.5 | 176 |
| COc1cc(N2CCN(c3cc(OC)c(Nc4ncc(Br)c(Nc5ccc6nc(C7CC7)ccc6c5P(C)(C)=O)n4)cc3-c3cnn(C)c3)CC2)ccn1 [Compound J-043] | 67.6 | 10.9 | 896 |
| COc1cc(N2CCC(N3CCN(C)CC3)CC2)c(-c2cnn(C)c2)cc1Nc1ncc(Br)c(Nc2ccc3nc(C4CC4)ccc3c2P(C)(C)=O)n1 [Compound J-068, (6-((5-Bromo-2-((2-methoxy-5-(1-methyl-1H-pyrazol-4-yl)-4-(4-(4-methylpiperazine-1-yl)piperidin-1-yl)phenyl)amino)pyrimidin-4-yl)amino)-2-cyclopropylquinolin-5-yl)dimethylphosphine oxide] | 33.2 | 1 | 201 |
| COc1cc(N2CCN(c3ccncc3)CC2)c(-c2cnn(C)c2)cc1Nc1ncc(Br)c(Nc2ccc3nc(C4CC4)ccc3c2P(C)(C)=O)n1 [Compound J-057, (6-((5-Bromo-2-((2-methoxy-5-(1-methyl-1H-pyrazol-4-yl)-4-(4-(pyridin-4-yl)piperazin-1-yl)phenyl)amino)pyrimidin-4-yl)amino)-2-cyclopropylquinolin-5-yl)dimethylphosphine oxide] | 54 | 3 | 328 |
| COc1cc(N2CCN(c3cccc(=O)n3C)CC2)c(-c2cnn(C)c2)cc1Nc1ncc(Br)c(Nc2ccc3nc(C4CC4)ccc3c2P(C)(C)=O)n1 [Compound J-050, 6-(4-(4-((5-Bromo-4-((2-cyclopropyl-5-(dimethylphosphoryl)quinolin-6-yl)amino)pyrimidin-2-yl)amino)-5-methoxy-2-(1-methyl-1H-pyrazol-4-yl)phenyl)piperazin-1-yl)-1-methylpyridin-2(1H)-one] | 42.2 | 1.8 | 861 |
| COc1cc(N2CCC(N3CCN(C)CC3)CC2)c(-c2ccn(C)c2)cc1Nc1ncc(Br)c(Nc2ccc3nc(C4CC4)ccc3c2P(C)(C)=O)n1 [Compound J-064, (6-((5-Bromo-2-((2-methoxy-5-(1-methyl-1H-pyrrol-3-yl)-4-(4-(4-methylpiperazine-1-yl)piperidin-1-yl)phenyl)amino)pyrimidin-4-yl)amino)-2-cyclopropylquinolin-5-yl)dimethylphosphine oxide] | 14.6 | 1.1 | 128 |
| COc1cc(N(C)CCN(C)C)c(-c2cnn(C)c2)cc1Nc1ncc(Br)c(Nc2ccc3nc(C4CC4)ccc3c2P(C)(C)=O)n1 [Compound J-062, (6-((5-Bromo-2-((4-((2-(dimethylamino)ethyl)(methyl)amino)-2-methoxy-5-(1-methyl-1H-pyrazol-4-yl)phenyl)amino)pyrimidin-4-yl)amino)-2-cyclopropylquinolin-5-yl)dimethylphosphine oxide] | 46.2 | 1.4 | 157 |
| COc1cc(Nc2ncc(Br)c(Nc3ccc4nc(C5CC5)ccc4c3P(C)(C)=O)n2)c(C)cc1N1CCC(OC)CC1 [Compound J-033, (6-((5-Bromo-2-((5-methoxy-4-(4-methoxypiperidin-1-yl)-2-methylphenyl)amino)pyrimidin-4-yl)amino)-2-cyclopropylquinolin-5-yl)dimethylphosphine oxide] | 611 | 12.9 | > 10000 |
| COc1cc(N2CCN(c3cnc(N(C)C)cn3)CC2)c(-c2cnn(C)c2)cc1Nc1ncc(Br)c(Nc2ccc3nc(C4CC4)ccc3c2P(C)(C)=O)n1 [Compound J-045, (6-((5-Bromo-2-((4-(4-(5-(dimethylamino)pyrazin-2-yl)piperazin-1-yl)-2-methoxy-5-(1-methyl-1H-pyrazol-4-yl)phenyl)amino)pyrimidin-4-yl)amino)-2-cyclopropylquinolin-5-yl)dimethylphosphine oxide] | 130 | 13.5 | 710 |
